This experiment deals with human Nav1.8 (Homo sapiens, UniProt Q9Y5Y9). Description: whole-cell manual patch clamp dose-response, […] °C. It is filed as cell-based.

The values that follow come from article PMC12146708 (Proceedings of the National Academy of Sciences of the …, 2025).

The structures appear in SMILES notation.

human Nav1.8, sequence (Q9Y5Y9 whole entry): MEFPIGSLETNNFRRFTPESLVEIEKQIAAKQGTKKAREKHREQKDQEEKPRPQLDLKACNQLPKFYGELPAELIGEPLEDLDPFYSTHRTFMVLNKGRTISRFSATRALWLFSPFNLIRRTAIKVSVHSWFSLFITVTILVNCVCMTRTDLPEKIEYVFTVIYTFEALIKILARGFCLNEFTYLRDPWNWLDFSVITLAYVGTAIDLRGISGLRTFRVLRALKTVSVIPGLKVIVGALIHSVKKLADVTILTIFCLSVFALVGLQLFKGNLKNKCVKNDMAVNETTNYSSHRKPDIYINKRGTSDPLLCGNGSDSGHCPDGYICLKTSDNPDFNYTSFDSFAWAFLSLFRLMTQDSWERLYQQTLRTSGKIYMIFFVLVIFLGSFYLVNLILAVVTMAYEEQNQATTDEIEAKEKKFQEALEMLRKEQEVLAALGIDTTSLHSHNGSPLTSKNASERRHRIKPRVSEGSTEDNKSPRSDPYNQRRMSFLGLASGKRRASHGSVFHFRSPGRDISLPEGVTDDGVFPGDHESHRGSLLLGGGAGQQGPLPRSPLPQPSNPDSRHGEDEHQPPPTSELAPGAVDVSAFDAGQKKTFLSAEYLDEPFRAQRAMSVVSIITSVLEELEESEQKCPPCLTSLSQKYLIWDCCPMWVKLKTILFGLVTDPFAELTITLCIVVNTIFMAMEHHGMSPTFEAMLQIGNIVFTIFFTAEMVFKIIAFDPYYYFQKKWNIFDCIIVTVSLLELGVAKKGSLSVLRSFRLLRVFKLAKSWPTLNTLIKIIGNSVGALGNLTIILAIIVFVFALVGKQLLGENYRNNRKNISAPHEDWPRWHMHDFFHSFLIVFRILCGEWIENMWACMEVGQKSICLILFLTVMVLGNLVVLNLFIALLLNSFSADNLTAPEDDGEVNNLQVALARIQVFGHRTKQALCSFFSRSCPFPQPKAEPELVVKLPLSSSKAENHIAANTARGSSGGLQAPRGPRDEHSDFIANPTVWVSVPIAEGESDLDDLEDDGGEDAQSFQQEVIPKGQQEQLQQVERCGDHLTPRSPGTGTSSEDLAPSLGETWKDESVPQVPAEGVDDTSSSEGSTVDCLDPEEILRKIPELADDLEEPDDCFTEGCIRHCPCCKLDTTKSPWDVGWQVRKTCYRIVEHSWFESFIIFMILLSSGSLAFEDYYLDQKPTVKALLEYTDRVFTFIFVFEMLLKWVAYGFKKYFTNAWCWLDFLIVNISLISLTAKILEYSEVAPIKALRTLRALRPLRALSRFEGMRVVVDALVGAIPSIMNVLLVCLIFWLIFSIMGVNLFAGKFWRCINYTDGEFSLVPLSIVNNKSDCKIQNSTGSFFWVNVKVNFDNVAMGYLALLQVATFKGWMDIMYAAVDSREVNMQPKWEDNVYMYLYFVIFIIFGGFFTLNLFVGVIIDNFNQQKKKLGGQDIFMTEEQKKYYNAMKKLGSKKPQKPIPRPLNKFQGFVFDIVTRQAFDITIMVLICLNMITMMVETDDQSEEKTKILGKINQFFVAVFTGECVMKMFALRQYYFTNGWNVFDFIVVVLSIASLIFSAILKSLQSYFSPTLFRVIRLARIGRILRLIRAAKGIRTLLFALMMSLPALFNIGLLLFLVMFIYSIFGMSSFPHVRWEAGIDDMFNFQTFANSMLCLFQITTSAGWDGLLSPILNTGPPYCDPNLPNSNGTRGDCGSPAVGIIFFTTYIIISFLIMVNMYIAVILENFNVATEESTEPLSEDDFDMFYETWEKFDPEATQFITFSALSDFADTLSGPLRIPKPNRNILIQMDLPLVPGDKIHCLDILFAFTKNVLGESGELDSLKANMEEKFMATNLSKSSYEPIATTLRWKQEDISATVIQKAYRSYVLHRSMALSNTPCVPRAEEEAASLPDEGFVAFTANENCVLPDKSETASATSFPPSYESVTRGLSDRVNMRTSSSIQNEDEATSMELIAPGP
human Nav1.8, sequence (Q9NY72 23-215 partner): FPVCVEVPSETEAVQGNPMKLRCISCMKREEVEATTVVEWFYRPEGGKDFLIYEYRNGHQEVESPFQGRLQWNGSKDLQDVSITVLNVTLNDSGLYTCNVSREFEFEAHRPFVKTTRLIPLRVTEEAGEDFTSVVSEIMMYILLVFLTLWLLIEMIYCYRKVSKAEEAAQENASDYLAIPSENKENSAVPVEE

What is called Kd is the constant that tells how readily two partners part at equilibrium. Higher therefore signals a looser complex. `COc1c([C@H]2[C@H](C(=O)Nc3ccnc(C(N)=O)c3)O[C@@](C)(C(F)(F)F)[C@H]2C)ccc(F)c1F` [VX-548] displayed a dissociation constant (Kd) of 0.072 nM. This counts as picomolar.
